Target: T1, xanthine oxidase (Bos taurus, UniProt P80457)
T1 construct: gene XDH
Assay: spectrophotometric assay of uric acid formation at […] nm, bovine milk enzyme
Format: biochemical
Details: read-out: IC50 (nM) ± SEM

T1 sequence (P80457 2-1332): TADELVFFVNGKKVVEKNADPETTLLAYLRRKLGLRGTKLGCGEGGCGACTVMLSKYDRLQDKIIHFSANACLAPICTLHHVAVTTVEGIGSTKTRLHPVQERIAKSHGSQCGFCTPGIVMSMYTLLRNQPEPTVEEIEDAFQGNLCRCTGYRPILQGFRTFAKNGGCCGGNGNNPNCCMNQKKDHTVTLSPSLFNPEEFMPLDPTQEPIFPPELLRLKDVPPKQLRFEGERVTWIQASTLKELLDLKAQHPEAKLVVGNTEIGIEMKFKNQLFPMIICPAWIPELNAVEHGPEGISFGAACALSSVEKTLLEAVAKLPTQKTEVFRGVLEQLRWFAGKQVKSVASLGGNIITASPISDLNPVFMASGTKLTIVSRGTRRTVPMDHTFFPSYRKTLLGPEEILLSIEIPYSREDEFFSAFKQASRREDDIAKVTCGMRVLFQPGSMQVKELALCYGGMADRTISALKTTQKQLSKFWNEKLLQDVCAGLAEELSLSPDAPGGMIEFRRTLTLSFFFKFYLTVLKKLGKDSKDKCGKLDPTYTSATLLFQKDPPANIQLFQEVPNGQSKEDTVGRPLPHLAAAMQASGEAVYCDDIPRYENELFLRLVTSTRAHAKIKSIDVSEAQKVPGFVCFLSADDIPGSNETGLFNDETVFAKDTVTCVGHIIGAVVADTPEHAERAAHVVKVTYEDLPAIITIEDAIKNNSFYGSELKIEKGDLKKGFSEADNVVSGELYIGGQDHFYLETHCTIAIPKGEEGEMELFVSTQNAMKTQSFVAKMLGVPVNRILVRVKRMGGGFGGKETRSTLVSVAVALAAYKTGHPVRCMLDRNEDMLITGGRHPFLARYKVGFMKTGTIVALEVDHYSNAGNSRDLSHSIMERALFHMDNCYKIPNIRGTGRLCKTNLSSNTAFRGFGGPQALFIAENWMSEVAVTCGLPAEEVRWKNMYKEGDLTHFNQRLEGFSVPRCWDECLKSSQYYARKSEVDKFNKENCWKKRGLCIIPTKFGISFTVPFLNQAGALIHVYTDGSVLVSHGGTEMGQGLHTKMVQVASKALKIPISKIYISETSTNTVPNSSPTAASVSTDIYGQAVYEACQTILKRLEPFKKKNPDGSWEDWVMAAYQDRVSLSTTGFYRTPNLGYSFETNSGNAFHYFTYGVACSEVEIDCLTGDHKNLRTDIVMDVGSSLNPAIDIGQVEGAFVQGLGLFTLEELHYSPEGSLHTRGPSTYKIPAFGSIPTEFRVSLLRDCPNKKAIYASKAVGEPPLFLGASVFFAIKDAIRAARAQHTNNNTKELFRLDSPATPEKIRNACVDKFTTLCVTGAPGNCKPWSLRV

SMILES	IC50 [nM]
CC1(C)C=Cc2c(cc(O)c3c2OC(c2ccccc2O)CC3=O)O1 (stereo in doubt) [compound 1, (2S) 5,2′-dihydroxy-6″,6″-dimethylchromeno-(7,8:2″,3″)-flavanone]	0.5
CC(C)=CCc1cccc(C2CC(=O)c3c(O)cc4c(c3O2)C=CC(C)(C)O4)c1O (stereo in doubt) [compound 2, (2S) 5,2′-dihydroxy-6″,6″-dimethylchromeno-(7,8:2″,3″)-3′-prenylflavanone]	1.7
